In patent publication US11370880B1 (FLORIDA ATLANTIC UNIVERSITY BOARD OF TRUSTEES, priority 2018, dated 2022):

Test system: HUVEC cells
Protocol: Human umbilical vein endothelial cells (HUVECs) were grown in endothelial growth medium (EGM-2, Lonza) supplemented with 10% fetal bovine serum (Gibco) and 1% PSG (Penicillin-Streptomycin-Glutamine, Gibco). […] At the same time, the cellular toxicity of degradation product of PXDDA on HUVEC cells was also evaluated. For this purpose, 104 cells were first seeded and cultured on the 96-well plates for 3 days. The degradation products were diluted with culture medium to obtain different concentrations (12.5, 25, and 40% v/v), and they were then added into the cells. After 36 h, 20 μl of MTT solution was added and the plated was incubated at 37° C. for 4 h. After adding 200 μl of DMSO, the absorbance was recorded at 570 nm. The measurements were carried out in triplicate.

With “poly(xylitol-dodecanedioic acid) [PXDDA]” the “toxicity of degradation products to HUVEC cells (MTT)” value was “No tangible toxicity”.
